Results on 22 compounds are retold here after ChEMBL document CHEMBL3046299, “Neonicotinoid substituents forming a water bridge at the nicotinic acetylcholine receptor” (J Agric Food Chem, 2009).

In one assay the test system is Aphis gossypii. Nature of the assay: Insecticidal activity against adult Aphis gossypii (cotton aphid) in cucumber cotyledons assessed as mortality at 500 ppm treated for 5 secs before adult infestation measured after 72 hr. The class given is functional. Conditions: in Cucumis sativus.
Assay [1] in a line: Displacement of [3H]IMI from nicotinic acetylcholine receptor in Drosophila melanogaster brain.
The test system of a further assay is Drosophila melanogaster. In words: Displacement of [3H]IMI from nicotinic acetylcholine receptor in Drosophila melanogaster brain at Ki concentration.

A word on the mortality: it is the percentage killed. For orientation: Ki means a measure of affinity in units of concentration, obtained from inhibition or displacement. A low value points to tighter binding. Consider `O=[N+]([O-])/N=C1\NCCN1CC1CCOC1` (stereo not given), for which the mortality at 500 ppm with Aphis gossypii turned out to be 100%. Besides, the affinity in assay [1], expressed as Ki, was 0.11 µM. For `CN/C(=N/CC1CCOC1)N[N+](=O)[O-]` (stereo not given) [DINOTEFURAN], the mortality at 500 ppm in the assay with Aphis gossypii came out at 100%. In assay [1], this compound returned a Ki of 0.076 µM. For the compound `O=[N+]([O-])/N=C1\NCCN1CCCCF`, in the assay with Aphis gossypii, the mortality at 500 ppm was 27%. For the same compound, affinity in assay [1] was put at a Ki of 3.5 µM. On to `O=[N+]([O-])/N=C1\NCCN1CCCF`, for which the mortality at 500 ppm in the assay on Aphis gossypii was 55%. Besides, the affinity in assay [1], expressed as Ki, was 1.7 µM. For `C/C(CCN1CCN/C1=N\[N+](=O)[O-])=N\O` the same measures were 10% and 40.5 µM. Usually inhibition stands for how much of the control response was suppressed. Regarding `O=[N+]([O-])/N=C1\NCCN1CCF`, the mortality at 500 ppm in the assay with Aphis gossypii came to 47%. For the same compound, in assay [1], the Ki is not below 100 µM. Further, the inhibition in the assay on Drosophila melanogaster was 44%. `O=[N+]([O-])/N=C1\NCCN1CC1CC=CC1`: the mortality at 500 ppm in the assay with Aphis gossypii was found to be 20%. Besides, the affinity in assay [1] corresponds to a Ki of 20.1 µM. Consider `O=[N+]([O-])/N=C1\N(CCC(O)C(F)(F)F)CCN1Cc1ccc(Cl)nc1` (stereo not given), for which affinity in assay [1] was put at a Ki of 5 µM. The same measure, in the same setting: to `O=[N+]([O-])/N=C1\N(CCCF)CCN1Cc1ccc(Cl)nc1` belongs 0.74 µM. Take `CC(=O)CCN1CCN/C1=N\[N+](=O)[O-]`: the mortality at 500 ppm with Aphis gossypii stood at 8%. In assay [1], the Ki was found to be 1.2 µM. In the same order, the values of `CO/N=C(\C)CCN1CCN/C1=N\[N+](=O)[O-]` are 2% and 61.2 µM. In turn, `CCCN1CCN(Cc2ccc(Cl)nc2)/C1=N/[N+](=O)[O-]` yielded a Ki in assay [1] of 0.89 µM. The same measure, in the same setting: to `CC(=O)O/C(=C\CN1CCN/C1=N\[N+](=O)[O-])C(F)(F)F` belongs 16.3 µM. Take `O=[N+]([O-])/N=C1\NCCN1Cc1ccc(Cl)nc1` [IMIDACLOPRID]: the mortality at 500 ppm in the assay with Aphis gossypii was 100%. The compound further yielded a Ki in assay [1] of 0.003 µM. In the same order, the values of `O=[N+]([O-])/N=C1\NCCN1C[C@@H]1C[C@@H]2O[C@@H]2C1` are 0% and 8.1 µM. For `O=[N+]([O-])/N=C1\NCCN1CCCCl` the same measures were 55% and 3.6 µM. In the same order, the values of `O=[N+]([O-])/N=C1\NCCN1C[C@H]1C[C@@H]2O[C@@H]2C1` are 18% and 14.8 µM. `CCCN1CCN/C1=N\[N+](=O)[O-]`: the mortality at 500 ppm with Aphis gossypii amounted to 31%. Moreover, in assay [1], the Ki was 12.8 µM.

In the case of `O=C(CCN1CCN/C1=N\[N+](=O)[O-])C(F)(F)F`, in the assay on Aphis gossypii, the mortality at 500 ppm worked out at 0%. This compound also gave a Ki in assay [1] not below 100 µM. Moreover, in the assay with Drosophila melanogaster, the inhibition was 43%. In assay [1], `O=[N+]([O-])/N=C1\NCCN1CCC(O)C(F)(F)F` (stereo not given) returned a Ki of 18.1 µM.

As for `CN/C(=N\[N+](=O)[O-])NCc1cnc(Cl)s1` [CLOTHIANIDINE], the mortality at 500 ppm in the assay with Aphis gossypii worked out at 100%. Affinity in assay [1] was put at a Ki of 0.004 µM. Turning to `CC(=O)CCN1CCN(Cc2ccc(Cl)nc2)/C1=N/[N+](=O)[O-]`, in assay [1], affinity was put at a Ki of 6.1 µM.
